# Test results taken from US10618885B2, “Compounds that activate autophagy” (Macau University of Science and Technology, priority 2018, dated 2020).
# Where two headings read alike, the source gives them in different places.
# What was measured:
# Assay type in all cases: cell-based
# [1] = test system: LC3 conversion (LC3-I to LC3-II) in HeLa cells; assay: Western blot for autophagic marker LC3 conversion in HeLa cells; conditions: 24 hours, three concentrations, normalised to β-actin
# Protocol: After drug treatment, adherent and floating cells were lysed with RIPA lysis buffer. Protein concentrations were determined using the Bio-Rad protein assay (Bio-Rad Laboratories, Inc., Hercules, Calif., USA). The cell lysates of samples were subjected to electrophoresis on SDS polyacrylamide gels and transferred to Hybond enhanced chemiluminescence nitrocellulose membranes (Amersham Biosciences, Piscataway, N.J.), which were then blocked with 5% non-fat dry milk protein for 1 hour. Membranes were then incubated with the indicated primary antibodies overnight at 4° C. The binding of the antibody was visualized by peroxidase-coupled secondary antibody using the ECL (enhanced chemiluminescence) Western Blotting Detection Reagents (Invitrogen, Paisley, Scotland, UK). Band intensities were quantified by using the software ImageJ (NIH, Bethesda, Md., USA).
# The presence of the autophagy marker protein, LC3-II was determined in HeLa cells by western blot analysis. HeLa cancer cells were treated with dauricine (Dau) or compounds 2a-4b with three indicated concentrations for 24 hours. Cell lysates were analyzed by Western blot for LC3 conversion ([…]) and β-actin. The western blot was shown in FIGS. 4A, 4C, 4E, 4G, 4I, 4K, and 4M. LC3-II band intensities were quantified using densitometric analysis and normalised to β-actin. The results were shown in FIGS. 4B, 4D, 4F, 4H, 4J, 4L and 4N. Data are expressed as a fold change relative to the DMSO-treated negative control. Bars are representatives of three independent experiments. Error bars, SEM. *, P<0.05; **, P<0.01; ***, P<0.001.
# [2] = test system: HeLa cells; assay: Annexin V cell death analysis by flow cytometry, with or without wortmannin; conditions: 24 hours; for compound-mediated cell death on blocking of autophagy by wortmannin: 5 μM compound plus 1 μM wortmannin; for percentage of cell death: 5 μM compound, annexin V staining, without wortmannin
# Protocol: Apoptosis was detected by Annexin V staining kit (BD Biosciences, San Jose, Calif., USA). In brief, cells were exposed to the indicated concentrations of […] for 24 hours. Cells were then harvested and analyzed by flow cytometry using FITC-Annexin V and Propidium Iodide staining according to the manufacturer's instructions. Apoptotic cells were quantitatively counted by a flow cytometer (BD FACSAria III, San Jose, Calif., USA). Data acquisition and analysis were performed with CellQuest (BD Biosciences, San Jose, Calif., USA) from triple independent experiments.
# To investigate whether the autophagy induced by compounds 2a, 2b, 3a, and 4a contributes to cell death, Annexin V cell death analysis was conducted. HeLa cells treated with these compounds (5 μM) in the presence or absence of 1 μM of wortmannin for 24 hours were assayed by flow cytometry after annexin V staining. Bar charts of FIGS. 5C and 5E represent the quantitation of cell death (%).
# [3] = test system: HeLa cancer cells; assay: MTT cytotoxicity assay in HeLa cancer cells
# Protocol: All test compounds were dissolved in DMSO (Dimethyl sulfoxide) at final concentrations of 50 mmol/L and stored at −20° C. before use. Cytotoxicity was assessed using the 3-(4, 5-dimethylthiazol-2-yl)-2, 5-diphenyltetrazolium bromide (MTT) (5.0 mg/ml) assay. Briefly, 4×10^3 cells were seeded per well in 96-well plates before drug treatment. After overnight culture, the cells were then exposed to different concentrations of test compounds (0.039-100 μmol/L) for 72 hours. Cells without drug treatment were used as control. Subsequently, MTT (10 μL) was added to each well and incubated at 37° C. for 4 hours followed by the addition of 100 μL solubilization buffer (10% SDS (Sodium dodecyl sulfate) in 0.01 mol/L HCl) and overnight incubation. A570 nm was determined from each well on the next day. The percentage of cell viability was calculated using the following formula: Cell viability (%)=Atreated/Acontrol×100. Data were obtained from triplication independent experiments.
# FIG. 1 is a graph 100 showing cell viability of HeLa cells treated with dauricine, N-desmethyldauricine, and compounds 2a-4b. HeLa cancer cells in 96 well-plates were treated with 0 to 20 μM of dauricine (Dau), N-desmethyldauricine (NDau) and dauricine derivatives (2a-4b) for 72 hours. Cell cytotoxicity was then assessed using the 3-(4, 5-dimethylthiazol-2-yl)-2, 5-diphenyltetrazolium bromide (MTT) (5.0 mg/ml) assay. The IC50 values shown in FIG. 1 are mean values of three independent experiments.
# [4] = test system: GFP-LC3 stable HeLa cells; assay: Autophagy LC3 puncta detection in GFP-LC3 stable HeLa cells; conditions: 24 hours; for formation of GFP-LC3 puncta (fluorescence images): compared with untreated cells; for percentage of cells with GFP-LC3 puncta (dose dependence): three concentrations
# Protocol: The detection of LC3 autophagic puncta was conducted using GFP-LC3 stable HeLa cancer cells as described below. In brief, compounds-treated GFP-LC3-HeLa cells on cover slips were fixed with 4% paraformaldehyde (Sigma) for 20 min at room temperature and then rinsed with PBS (phosphate-buffered saline). The coverslips were then mounted with FLUORSAVE™ mounting media (Calbiochem, San Diego, Calif., USA) for fluorescence imaging and the localization of LC3 autophagosomes were captured under the API Delta Vision Live-cell Imaging System (Applied Precision Inc., GE Healthcare Company, Washington, USA). To quantify autophagy, guidelines were followed to monitor autophagy, the percentage of cells with punctuate LC3 immunofluorescence staining was calculated by counting the number of the cells showing the increased punctuate pattern of LC3 fluorescence (≥10 dots/cell) in immunofluorescence-positive cells over the total number of cells in the same field. A minimum of 1000 cells from randomly selected fields were scored.
# FIG. 2A-3H show identification of compounds 2a-4b with autophagic activities. GFP-LC3 puncta in compound-treated GFP-LC3-HeLa cells were detected. GFP-LC3 stable HeLa cells were treated with DMSO (−ve Ctrl) or the indicated concentrations of dauricine (Dau), N-desmethyldauricine (NDau) and dauricine derivatives (2a-4b) for 24 hours. Representative fluorescence images from the highest tested concentration of compound captured at 60× magnification were shown; scale bar, 15 μm. Bar charts represent the quantitation of autophagic cells. The percentages of autophagic cells were calculated as the number of cells with GFP-LC3 puncta (≥10 puncta/cell) divided by the total number of GFP-positive cells in the same field.
# [5] = HeLa cancer cells, 72 hours, MTT, mean of three independent experiments, read-out: IC50 (cytotoxicity)
structure (smiles),measurement,setting,value
CCN(CC)C(=O)Oc1ccc(CC2c3cc(OC)c(OC)cc3CCN2C)cc1Oc1ccc(CC2c3cc(OC)c(OC)cc3CCN2C)cc1 (centres unmarked) [Compound 2e],conversion of LC3-I to LC3-II (fold change relative to DMSO control),[1],increased the conversion of LC3-I to LC3-II in a dose dependent manner
COc1cc2c(cc1OC)C(Cc1ccc(Oc3cc(CC4c5cc(OC)c(OC)cc5CCN4C)ccc3OC(=O)c3ccco3)cc1)N(C)CC2 (centres unmarked) [Compound 3b],conversion of LC3-I to LC3-II (fold change relative to DMSO control),[1],increased the conversion of LC3-I to LC3-II in a dose dependent manner
COc1cc2c(cc1OC)C(Cc1ccc(Oc3cc(CC4c5cc(OC)c(OC)cc5CCN4C)ccc3OC(=O)N(C)OC)cc1)N(C)CC2 (centres unmarked) [Compound 2f],conversion of LC3-I to LC3-II (fold change relative to DMSO control),[1],increased the conversion of LC3-I to LC3-II in a dose dependent manner
COc1cc2c(cc1OC)C(Cc1ccc(Oc3cc(CC4c5cc(OC)c(OC)cc5CCN4C)ccc3OC(=O)N(C)c3ccccc3)cc1)N(C)CC2 (centres unmarked) [Compound 2b],compound-mediated cell death on blocking of autophagy by wortmannin,[2],significantly inhibited
same,percentage of cell death,[2],markedly increased the percentage of cell death
same,conversion of LC3-I to LC3-II (fold change relative to DMSO control),[1],increased the conversion of LC3-I to LC3-II in a dose dependent manner
same,IC50,[3]; [5],6.72 µM
CCN(C)C(=O)Oc1ccc(CC2c3cc(OC)c(OC)cc3CCN2C)cc1Oc1ccc(CC2c3cc(OC)c(OC)cc3CCN2C)cc1 (centres unmarked) [Compound 2d],conversion of LC3-I to LC3-II (fold change relative to DMSO control),[1],increased the conversion of LC3-I to LC3-II in a dose dependent manner
COc1cc2c(cc1OC)C(Cc1ccc(Oc3cc(CC4c5cc(OC)c(OC)cc5CCN4C)ccc3OC(=O)c3ccccc3)cc1)N(C)CC2 (centres unmarked) [Compound 3a],compound-mediated cell death on blocking of autophagy by wortmannin,[2],significantly inhibited
same,percentage of cell death,[2],markedly increased the percentage of cell death
same,conversion of LC3-I to LC3-II (fold change relative to DMSO control),[1],increased the conversion of LC3-I to LC3-II in a dose dependent manner
same,IC50,[3]; [5],6.44 µM
COc1cc2c(cc1OC)C(Cc1ccc(Oc3cc(CC4c5cc(OC)c(OC)cc5CCN4C)ccc3OC(=O)N3CCOCC3)cc1)N(C)CC2 (centres unmarked) [Compound 2g],conversion of LC3-I to LC3-II (fold change relative to DMSO control),[1],increased the conversion of LC3-I to LC3-II in a dose dependent manner
COc1cc2c(cc1OC)C(Cc1ccc(Oc3cc(CC4c5cc(OC)c(OC)cc5CCN4C)ccc3OC(=O)N(c3ccccc3)c3ccccc3)cc1)N(C)CC2 (centres unmarked) [Compound 2a],compound-mediated cell death on blocking of autophagy by wortmannin,[2],significantly inhibited
same,percentage of cell death,[2],markedly increased the percentage of cell death
same,conversion of LC3-I to LC3-II (fold change relative to DMSO control),[1],increased the conversion of LC3-I to LC3-II in a dose dependent manner
same,IC50,[3]; [5],5.44 µM
COc1cc2c(cc1OC)C(Cc1ccc(Oc3cc(CC4c5cc(OC)c(OC)cc5CCN4C)ccc3OC(=O)N(C)C)cc1)N(C)CC2 (centres unmarked) [Compound 2c],conversion of LC3-I to LC3-II (fold change relative to DMSO control),[1],increased the conversion of LC3-I to LC3-II in a dose dependent manner
COc1cc2c(cc1OC)C(Cc1ccc(Oc3cc(CC4c5cc(OC)c(OC)cc5CCN4C)ccc3OS(=O)(=O)c3ccc(C)cc3)cc1)N(C)CC2 (centres unmarked) [Compound 4a],compound-mediated cell death on blocking of autophagy by wortmannin,[2],significantly inhibited
same,percentage of cell death,[2],markedly increased the percentage of cell death
same,conversion of LC3-I to LC3-II (fold change relative to DMSO control),[1],increased the conversion of LC3-I to LC3-II in a dose dependent manner
same,IC50,[3]; [5],6.1 µM
"COC[C@H]1OC(=O)c2coc3c2[C@@]1(C)C1=C(C3=O)[C@@H]2CCC(=O)[C@@]2(C)C[C@H]1OC(C)=O [wortmannin, reference compound]",cytotoxic effect of wortmannin alone,[2]; wortmannin alone (1 μM),no cytotoxic effect
"COc1cc2c(cc1OC)[C@@H](Cc1ccc(Oc3cc(C[C@H]4NCCc5cc(OC)c(OC)cc54)ccc3O)cc1)N(C)CC2 [N-desmethyldauricine, reference compound]",formation of GFP-LC3 puncta (fluorescence images),[4],increased formation of GFP-LC3 puncta
same,percentage of cells with GFP-LC3 puncta (dose dependence),[4],induced autophagic puncta in HeLa cells in a dose-dependent manner
same,conversion of LC3-I to LC3-II (fold change relative to DMSO control),[1],increased the conversion of LC3-I to LC3-II in a dose-dependent manner
same,IC50,[3],15.8 µM
COc1cc2c(cc1OC)C(Cc1ccc(Oc3cc(CC4c5cc(OC)c(OC)cc5CCN4C)ccc3OS(C)(=O)=O)cc1)N(C)CC2 (centres unmarked) [Compound 4b],conversion of LC3-I to LC3-II (fold change relative to DMSO control),[1],increased the conversion of LC3-I to LC3-II in a dose dependent manner
"COc1cc2c(cc1OC)[C@@H](Cc1ccc(Oc3cc(C[C@@H]4c5cc(OC)c(OC)cc5CCN4C)ccc3O)cc1)N(C)CC2 [dauricine, reference compound]",formation of GFP-LC3 puncta (fluorescence images),[4],increased formation of GFP-LC3 puncta
same,percentage of cells with GFP-LC3 puncta (dose dependence),[4],induced autophagic puncta in HeLa cells in a dose-dependent manner
same,conversion of LC3-I to LC3-II (fold change relative to DMSO control),[1],increased the conversion of LC3-I to LC3-II in a dose-dependent manner
same,IC50,"[3]; Homo sapiens, HeLa, 72 h, read-out: IC50 (cytotoxicity)",15.5 µM
